Data taken from ChEMBL document CHEMBL1128401, “Structure-activity relationships in the 8-amino-6,7,8,9-tetrahydro-3H-benz[e]indole ring system. 1. Effects of substituents in the aromatic system on serotonin and dopamine receptor subtypes” (J Med Chem, 1995).
Activity calls are given as the source filed them. No cut-off for these calls is given here.

Columns and labels:
[1] = target: 5-hydroxytryptamine receptor 1B (Homo sapiens, UniProt P28222); experiment: Binding affinity against 5-hydroxytryptamine 1D receptor beta expressed in CHO-K1 cells, using [3H]5-HT as the radioligand.; format: cell-based; details: read-out: Ki
5-hydroxytryptamine receptor 1B, sequence (P28222 whole entry): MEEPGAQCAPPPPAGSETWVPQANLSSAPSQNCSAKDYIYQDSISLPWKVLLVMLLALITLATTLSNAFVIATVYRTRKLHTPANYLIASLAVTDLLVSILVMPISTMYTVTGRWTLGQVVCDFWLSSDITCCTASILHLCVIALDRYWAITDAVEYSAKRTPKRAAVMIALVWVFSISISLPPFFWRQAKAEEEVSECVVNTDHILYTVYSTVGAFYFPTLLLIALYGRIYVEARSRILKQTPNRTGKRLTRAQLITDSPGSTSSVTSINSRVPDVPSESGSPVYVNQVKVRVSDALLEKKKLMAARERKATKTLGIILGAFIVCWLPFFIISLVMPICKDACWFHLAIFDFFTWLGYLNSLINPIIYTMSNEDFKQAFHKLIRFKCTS

Rattus norvegicus [2] = experiment: In vivo for 5-HTP accumulation in limbic system against reserpine-pretreated rats.; format: functional
D(2) dopamine receptor [3] = target: T1, D(2) dopamine receptor (Rattus norvegicus, UniProt P61169); experiment: Binding affinity against Dopamine receptor D2 from CHO-K1 cells, using [3H]U-86,170 as the radioligand.; format: cell-based
T1 sequence (P61169 whole entry): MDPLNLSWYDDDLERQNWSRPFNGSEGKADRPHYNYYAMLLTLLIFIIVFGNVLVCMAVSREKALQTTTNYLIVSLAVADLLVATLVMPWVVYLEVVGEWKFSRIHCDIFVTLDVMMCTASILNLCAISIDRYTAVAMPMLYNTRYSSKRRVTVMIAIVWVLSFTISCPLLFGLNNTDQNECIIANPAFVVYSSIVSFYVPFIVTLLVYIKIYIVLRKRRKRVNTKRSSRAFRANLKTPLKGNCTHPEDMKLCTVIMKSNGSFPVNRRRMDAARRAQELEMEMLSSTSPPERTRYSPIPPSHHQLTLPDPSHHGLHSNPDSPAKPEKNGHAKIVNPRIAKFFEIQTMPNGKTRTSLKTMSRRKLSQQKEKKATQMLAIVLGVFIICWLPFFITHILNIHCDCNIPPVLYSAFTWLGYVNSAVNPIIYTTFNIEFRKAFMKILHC

Rattus norvegicus [4] = experiment: In vivo for DOPA accumulation in limbic system against reserpine-pretreated rats.; format: functional
Rattus norvegicus [5] = experiment: In vivo for 5-HTP accumulation in hemispheres (cortex) against reserpine-pretreated rats.; format: functional
[6] = target: T2, 5-hydroxytryptamine receptor 1A (Rattus norvegicus, UniProt P19327); experiment: Binding affinity against 5-hydroxytryptamine 1A receptor from CHO-K1 cells, using [3H]8-OH-DPAT as the radioligand.; format: cell-based
T2 sequence (P19327 whole entry): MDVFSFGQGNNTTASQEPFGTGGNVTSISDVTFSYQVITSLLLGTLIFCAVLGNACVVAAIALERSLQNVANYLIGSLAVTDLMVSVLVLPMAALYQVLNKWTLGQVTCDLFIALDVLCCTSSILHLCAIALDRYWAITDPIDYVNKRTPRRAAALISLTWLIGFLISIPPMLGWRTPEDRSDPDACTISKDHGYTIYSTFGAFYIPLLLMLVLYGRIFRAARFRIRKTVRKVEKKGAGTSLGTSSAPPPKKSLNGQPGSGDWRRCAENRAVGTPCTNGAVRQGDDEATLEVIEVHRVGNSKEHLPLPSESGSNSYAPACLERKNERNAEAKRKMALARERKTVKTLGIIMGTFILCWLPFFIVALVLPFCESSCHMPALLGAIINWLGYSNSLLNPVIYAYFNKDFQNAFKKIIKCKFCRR

Rattus norvegicus [7] = experiment: In vivo for 5-HTP accumulation in corpus striatum against reserpine-pretreated rats.; format: functional
Rattus norvegicus [8] = experiment: In vivo for DOPA accumulation in corpus striatum against reserpine-pretreated rats.; format: functional
Rattus norvegicus [9] = experiment: The Compound was tested in vivo for DOPA accumulation in hemispheres (cortex) against reserpine-pretreated rats;I= inactive at the highest dose (12.5); format: functional, organism-based
Rattus norvegicus [10] = experiment: compound was tested in vivo for 5-HTP accumulation in corpus striatum against reserpine-pretreated rats, activity expressed as ED50; I= inactive at the highest dose tested (50).; format: functional, organism-based
Rattus norvegicus [11] = experiment: The compound was tested in vivo for DOPA accumulation in limbic system against reserpine-pretreated rats; I= inactive at the highest dose tested (50).; format: functional, organism-based
Rattus norvegicus [12] = experiment: compound was tested in vivo for 5-HTP accumulation in hemispheres (cortex) against reserpine-pretreated rats; I= inactive at the highest dose tested (50).; format: functional, organism-based
D(2) dopamine receptor [13] = target: T1, D(2) dopamine receptor; experiment: Binding affinity against Dopamine receptor D2 expressed in CHO-K1 cells, using [3H]U-86170 as the radioligand.; format: cell-based
Rattus norvegicus [14] = experiment: compound was tested in vivo for DOPA accumulation in corpus striatum against reserpine-pretreated rats; P=significant partial reduction only at the highest dose tested (50).; format: functional, organism-based
Rattus norvegicus [15] = experiment: The compound was tested in vivo for DOPA accumulation in hemispheres (cortex) against reserpine-pretreated rats; I= inactive at the highest dose tested (50).; format: functional, organism-based
Rattus norvegicus [16] = experiment: compound was tested in vivo for 5-HTP accumulation in limbic system against reserpine-pretreated rats; I= inactive at the highest dose tested (50).; format: functional, organism-based
D(3) dopamine receptor [17] = target: T3, D(3) dopamine receptor (Rattus norvegicus, UniProt P19020); experiment: The compound was tested in vitro for binding affinity against cloned mammalian Dopamine receptor D3 expressed in CHO cells by, using [3H]spiperone as radioligand; format: cell-based
T3 sequence (P19020 whole entry): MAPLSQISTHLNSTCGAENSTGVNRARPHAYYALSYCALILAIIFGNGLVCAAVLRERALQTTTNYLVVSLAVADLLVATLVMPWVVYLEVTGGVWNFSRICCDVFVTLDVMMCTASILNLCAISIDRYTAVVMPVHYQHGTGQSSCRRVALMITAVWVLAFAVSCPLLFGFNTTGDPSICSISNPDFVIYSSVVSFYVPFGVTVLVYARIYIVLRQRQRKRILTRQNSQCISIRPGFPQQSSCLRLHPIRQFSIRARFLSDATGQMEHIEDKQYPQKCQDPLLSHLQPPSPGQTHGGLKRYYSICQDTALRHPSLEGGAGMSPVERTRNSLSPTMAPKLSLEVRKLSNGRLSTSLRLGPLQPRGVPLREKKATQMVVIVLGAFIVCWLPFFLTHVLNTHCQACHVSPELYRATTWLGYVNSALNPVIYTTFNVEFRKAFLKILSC

[18] = target: 5-hydroxytryptamine receptor 1D (Homo sapiens, UniProt P28221); experiment: Binding affinity against 5-hydroxytryptamine 1D receptor alpha expressed in CHO-K1 cells, using [3H]-5-HT as the radioligand.; format: cell-based; details: read-out: Ki
5-hydroxytryptamine receptor 1D, sequence (P28221 whole entry): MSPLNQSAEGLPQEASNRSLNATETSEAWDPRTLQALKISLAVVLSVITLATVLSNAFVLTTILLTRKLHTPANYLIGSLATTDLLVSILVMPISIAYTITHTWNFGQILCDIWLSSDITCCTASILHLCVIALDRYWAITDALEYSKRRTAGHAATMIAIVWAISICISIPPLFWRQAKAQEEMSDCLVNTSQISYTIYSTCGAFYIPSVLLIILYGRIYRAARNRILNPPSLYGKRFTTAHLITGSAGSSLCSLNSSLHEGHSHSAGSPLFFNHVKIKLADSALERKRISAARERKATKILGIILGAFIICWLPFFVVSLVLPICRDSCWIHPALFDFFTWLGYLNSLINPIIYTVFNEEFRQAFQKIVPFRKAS

D(3) dopamine receptor [19] = target: T3, D(3) dopamine receptor; experiment: Compound was tested for binding affinity against Dopamine receptor D3 expressed in CHO-K1 cells, using [3H]spiperone as the radioligand; I= inactive at the highest dose tested (12.5).; format: cell-based
D(2) dopamine receptor [20] = target: T1, D(2) dopamine receptor; details: cho-k1
D(3) dopamine receptor [21] = target: T3, D(3) dopamine receptor; experiment: Binding affinity against Dopamine receptor D3 expressed in CHO-K1 cells, using [3H]spiperone as the radioligand.; format: cell-based
Rattus norvegicus [22] = experiment: The Compound was tested in vivo for DOPA accumulation in hemispheres (cortex) against reserpine-pretreated rats; I=inactive at the highest dose tested (3.1).; format: functional, organism-based
Rattus norvegicus [23] = experiment: The Compound was tested in vivo for DOPA accumulation in hemispheres (cortex) against reserpine-pretreated rats; Iinactive at the highest dose tested (12.5).; format: functional, organism-based
D(3) dopamine receptor [24] = target: T3, D(3) dopamine receptor; experiment: Binding affinity against Dopamine receptor D3 from CHO-K1 cells, using [3H]spiperone as the radioligand.; format: cell-based
Rattus norvegicus [25] = experiment: compound was tested in vivo for 5-HTP accumulation in corpus striatum against reserpine-pretreated rats, activity expressed as ED50; format: functional
Rattus norvegicus [26] = experiment: The compound was tested in vivo for DOPA accumulation in hemispheres (cortex) against reserpine-pretreated rats;I= inactive at the highest dose tested; format: functional, organism-based

Structure (SMILES)	Ki [1]	ED50 (Rattus norvegicus [2])	Ki (D(2) dopamine receptor [3])	ED50 (Rattus norvegicus [4])	ED50 (Rattus norvegicus [5])	Ki [6]	ED50 (Rattus norvegicus [7])	ED50 (Rattus norvegicus [8])	Ki (D(2) dopamine receptor [13])	Ki [18]	further results
CCCN(CCC)[C@H]1CCc2cc(F)c3[nH]ccc3c2C1	0.948 µM	0.74 µmol/kg	0.0044 µM	0.8 µmol/kg	0.83 µmol/kg	0.0037 µM	0.42 µmol/kg	0.43 µmol/kg			ED50 (Rattus norvegicus [9]): inactive
CCCN(CCC)C1CCc2ccc3[nH]cc(CC(F)(F)F)c3c2C1 (centres undefined)	0.409 µM					0.018 µM			0.086 µM	0.054 µM	ED50 (Rattus norvegicus [10]): inactive; ED50 (Rattus norvegicus [11]): inactive; ED50 (Rattus norvegicus [12]): inactive; ED50 (Rattus norvegicus [14]): Weak activity; ED50 (Rattus norvegicus [15]): inactive; ED50 (Rattus norvegicus [16]): inactive; Ki (D(3) dopamine receptor [17]): 0.134 µM
CCCN(CCC)[C@H]1CCc2ccc3[nH]cc(C(=O)C(N)=O)c3c2C1	1.1 µM					0.049 µM				0.44 µM	Ki (D(3) dopamine receptor [19]): Not Active; Ki (D(2) dopamine receptor [20]): Not Active
CCCN(CCC)[C@H]1CCc2ccc3[nH]ccc3c2C1	2.28 µM	0.21 µmol/kg		0.51 µmol/kg	0.23 µmol/kg		0.34 µmol/kg	0.82 µmol/kg	0.017 µM	0.44 µM	Ki (D(3) dopamine receptor [21]): 0.022 µM; ED50 (Rattus norvegicus [22]): inactive
CCCN(CCC)C1CCc2ccc3[nH]ccc3c2C1 (centres undefined)	0.349 µM	0.096 µmol/kg		0.15 µmol/kg	0.17 µmol/kg		0.076 µmol/kg	0.3 µmol/kg	0.015 µM	0.04 µM	Ki (D(3) dopamine receptor [21]): 0.037 µM; ED50 (Rattus norvegicus [23]): inactive
CCCN(CCC)C1CCc2ccc3[nH]cc(C(=O)c4ccccc4)c3c2C1 (centres undefined)						0.0086 µM			0.177 µM		Ki (D(3) dopamine receptor [21]): 0.108 µM
CCCN(CCC)C1CCc2cc(F)c3[nH]ccc3c2C1 (centres undefined)	0.216 µM	1.92 µmol/kg	0.0028 µM	1.17 µmol/kg	0.54 µmol/kg	0.0014 µM	0.06 µmol/kg	1 µmol/kg			ED50 (Rattus norvegicus [9]): inactive
CCCN(CCC)C1CCc2ccc3[nH]cc(C(=O)C(=O)N(CC)CC)c3c2C1 (centres undefined)						0.0073 µM					
CCCc1c[nH]c2c(F)cc3c(c12)CC(N(CCC)CCC)CC3 (centres undefined)	0.177 µM		0.0059 µM			0.011 µM				0.0084 µM	Ki (D(3) dopamine receptor [24]; read-out: Ki): 0.111 µM
CCCN(CCC)[C@H]1CCc2ccc3[nH]cc(C=O)c3c2C1	0.939 µM		0.423 µM							0.155 µM	ED50 (Rattus norvegicus [25]): 0.0052 µmol/kg; ED50 (Rattus norvegicus [26]): inactive; Ki (D(3) dopamine receptor [24]; read-out: Ki): 0.751 µM
CCCN(CCC)[C@@H]1CCc2ccc3[nH]cc(C(=O)C(N)=O)c3c2C1	0.856 µM		0.472 µM			0.017 µM				0.054 µM	Ki (D(3) dopamine receptor [24]; cho-k1): Not Active
